Columns and labels:
[1] = tested on: spontaneous locomotoric activity; conditions: in the dose range that normalizes ethanolic hyperactivity; cited from earlier work
[2] = tested on: ethanolic locomotoric hyperactivity; conditions: mice; in a dose range which decreases spontaneous locomotoric activity; cited from earlier work
[3] = Acute oral toxicity, 14 days observation; conditions: rat, in vivo, 500 mg/kg
[4] = tested on: ethanolic narcosis; assay: Ethanolic narcosis period in rats (righting reflex); assay type: in vivo, Hann.-Wistar rats; conditions: 1 h before ethanol i.p., n=10, control 100 ± 5.2
Experimental: The animals were treated with various doses of the compounds of the formula (I) in groups of ten, orally, One hour after treatment the rats were treated with […]. of ethanol intraperitoneally (i.p.). The narcosis period of the animals was measured from the elapse of the righting reflex until a spontaneous correction of the body position. The average of the narcosis period and the percentage difference from the control were calculated. The control group was treated with placebo and […]. of ethanol.

[5] = tested on: alcoholic intoxication, narcosis; conditions: in vivo; cited from earlier work

**Q.** What does the source list for `CC(N)(Cc1ccc(O)cc1)C(=O)O` (stereo not drawn) [α-Methyl-para-tyrosine]?
**A.** Spontaneous locomotoric activity [1]: decreases the spontaneous locomotoric activity; Ethanolic locomotoric hyperactivity [2]: normalizes the ethanolic locomotoric hyperactivity

**Q.** Which results are given for `CCC(O)(c1ccc(O)cc1)c1cccc(Cl)c1` (stereo not drawn) [B, 3-chloro-4'-hydroxy-α-ethyl-benzhydrol]?
**A.** mortality at 336 h [3]: 0%; Ethanolic narcosis period, x ± S.E. ([4]; 40.0 mg./kg. orally): 60 ± 7.5

**Q.** Which “Alcoholic intoxication, narcosis” value [5] does the source give for `N[C@@H](CS)C(=O)O` [L-cysteine, reference compound] here?
**A.** The value was “shortened”.

**Q.** What about the “Ethanolic narcosis period, x ± S.E.” value ([4]; 500.0 mg./kg.) of the same compound?
**A.** Its value is 63 ± 4.2.

**Q.** And the “Ethanolic narcosis period, x ± S.E.” value ([4]; 1000.0 mg./kg.)?
**A.** The value was 66 ± 5.9.

**Q.** Which mortality at 336 h [3] does the source give for `CCC(O)(c1ccc(O)cc1)c1ccccc1C(F)(F)F` (stereo not drawn) [A, 2-trifluoromethyl-4'-hydroxy-α-ethyl-benzhydrol] here?
**A.** The mortality at 336 h was 0%.

**Q.** What about the “Ethanolic narcosis period, x ± S.E.” value ([4]; 5.0 mg./kg. orally) of the same compound?
**A.** Its value is 69 ± 4.5.

**Q.** And the “Ethanolic narcosis period, x ± S.E.” value ([4]; 20.0 mg./kg. orally)?
**A.** The value was 52 ± 6.0.

**Q.** And the “Ethanolic narcosis period, x ± S.E.” value ([4]; 40.0 mg./kg. orally)?
**A.** The value was 39 ± 3.4.
